The text below walks through data of patent publication US8575197B2, “Pyrolinone derivative and pharmaceutical composition comprising the same” (Shionogi & Co., Ltd., priority 2008, dated 2013).

This assay deals with human P2X3 receptor (Homo sapiens (Human), UniProt P56373). Nature of the assay: P2X3 receptor inhibition, ATP-evoked Fluo-3 calcium fluorescence (FDSS 3000). It is filed as cell-based. To be noted: C6BU-1 cell transfected with human P2X3 receptor gene; ATP-evoked Fluo-3 fluorescence. As to the method:
Stably expressing cell line (C6BU-1 cell transfected with human P2X3 receptor gene (GenBank accession number Y07683)) was used. The cells were seeded in a 96-well microtiter plate at a concentration of 8000 cells/well and cultured in the medium (8.3% fetal bovine serum, 8.3% horse serum, 1% antibiotic and antifungal in DMEM) for one day at 37° C. under 5% carbon dioxide atmosphere. The medium was replaced with 4 μM Fluo-3-AM solution (pH7.5) containing 20 mM HEPES, 137 mM NaCl, 2.7 mM KCl, 0.9 mM MgCl2, 5.0 mM CaCl2, 5.6 mM D-glucose, 2.5 mM probenecid, 10% BSA, and 0.08% Pluronic F-127, and incubated at 37° C. under 5% dioxide carbon atmosphere for one hour. The plate was washed with washing buffer (20 mM HEPES, 137 mM NaCl, 2.7 mM KCl, 0.9 mM MgCl2, 5.0 mM CaCl2, 5.6 mM D-glucose, 2.5 mM probenecid, pH7.5), and each well was added with 40 μL of this buffer. The plate was placed in High-Throughput Screening System FDSS 3000 (Hamamatsu Photonics K.K.). Measurement of fluorescence intensity by FDSS 3000 was started, and 40 μL of DMSO solutions containing different concentrations of the test compound as prepared by dilution with dilution buffer (20 mM HEPES, 137 mM NaCl, 2.7 mM KCl, 0.9 mM MgCl2, 5.0 mM CaCl2, 5.6 mM D-glucose, 2.5 mM probenecid, 0.1% Pluronic F-127, pH7.5) were dispensed to each well through the built-in automatic dispenser. Five minutes after, 40 nM ATP solution (50 μL) prepared by dilution with the dilution buffer was dispensed through the built-in automatic dispenser, and the measurement of fluorescence intensity was continued for 3 min. For each well, the specific maximum fluorescence intensity was calculated as the ratio of the maximum fluorescence intensity after addition of the ATP solution to the fluorescence intensity at the starting of the measurement. […] FDSS software (Hamamatsu Photonics K.K.) was used for calculation of the specific maximum fluorescence intensity. IC50 was calculated using Microsoft™ Excel™ (Microsoft Corporation) and XLfit™ (ID Business Solutions Ltd.).

Chain of human P2X3 receptor (P56373 whole entry): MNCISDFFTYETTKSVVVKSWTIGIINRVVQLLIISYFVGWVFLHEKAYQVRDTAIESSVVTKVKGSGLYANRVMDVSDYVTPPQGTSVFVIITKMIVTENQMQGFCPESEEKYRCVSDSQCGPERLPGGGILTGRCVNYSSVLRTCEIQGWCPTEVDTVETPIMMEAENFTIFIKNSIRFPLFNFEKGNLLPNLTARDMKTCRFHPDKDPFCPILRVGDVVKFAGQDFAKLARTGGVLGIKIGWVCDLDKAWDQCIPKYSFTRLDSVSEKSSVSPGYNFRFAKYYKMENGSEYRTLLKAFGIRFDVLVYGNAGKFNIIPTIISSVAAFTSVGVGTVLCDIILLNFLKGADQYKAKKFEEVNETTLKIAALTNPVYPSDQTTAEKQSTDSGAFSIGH

For orientation: IC50 means the point on the concentration scale where inhibition reaches its midpoint. Turning to `COCc1ccccc1C1C(C(=O)C(C)C)=C(O)C(=O)N1c1ccc(-c2csc(C)n2)cc1` (stereo not shown) [Compound I-425], the IC50 stood at 697 nM. Take `COCCOc1ccccc1C1C(C(=O)C(C)(C)C)=C(O)C(=O)N1c1ccc(-c2ccoc2)cc1` (stereo not shown) [Compound I-156]: the IC50 was determined as 32 nM. Consider `COC(=O)Nc1ccccc1C1c2c(C(C)C)n[nH]c2C(=O)N1c1ccc(-c2ccsc2)cc1` (stereo not shown) [II-095], for which the IC50 worked out at 12 nM. Take `COCc1ccccc1C1C(C(=O)CC(C)C)=C(O)C(=O)N1c1ccc(SC)cc1` (stereo not shown) [Compound I-437]: the IC50 turned out to be 111 nM. As to `CCOC(=O)C1C(C(=O)C(C)C)=C(O)C(=O)N1c1ccc(-c2ccsc2)cc1` (stereo not shown) [Compound I-216], the IC50 stood at 679 nM. Then `CC(C)(C)C(=O)C1=C(O)C(=O)N(c2ccc(-c3ccon3)cc2)C1c1ccccc1OC(F)(F)F` (stereo not shown) [Compound I-019], with 132 nM; and `Cc1ccc(-c2ccc(N3C(=O)C(O)=C(C(=O)C(C)C)C3c3ccccc3C(=O)N(C)C)cc2)s1` (stereo not shown) [Compound I-401], with 79 nM; and `CC(C)CC(=O)C1=C(O)C(=O)N(c2ccc(-c3ccsc3)cc2)C1c1ccccc1OCC(CO)CO` (stereo not shown) [Compound I-498], with 8 nM. With `COc1ccccc1C1C(C(=O)C(C)(C)C)=C(O)C(=O)N1c1ccc(-c2ccoc2)cc1` (stereo not shown) [Compound I-077] the figure was 48 nM; with `Cc1ccc(-c2ccc(N3C(=O)C(O)=C(C(=O)CC(C)C)C3c3ccccc3C(=O)N(C)C)cc2)o1` (stereo not shown) [Compound I-399], 44 nM; with `CC(C)(C)C(=O)C1=C(O)C(=O)N(c2ccc(-c3ccon3)cc2)C1c1cccc[n+]1[O-]` (stereo not shown) [Compound I-005], 247 nM. With `CC(C)(C)c1n[nH]c2c1C(c1cccnc1OCCO)N(c1ccc(-c3ccsc3)cc1)C2=O` (stereo not shown) [II-039] the figure was 5 nM. In the case of `Cc1nc(-c2ccc(N3C(=O)C(O)=C(C(=O)C(C)C)C3c3ccccc3OC(F)F)cc2)no1` (stereo not shown) [Compound I-313], the IC50 came to 320 nM. Regarding `COCCOc1ccccc1C1C(C(=O)CC(C)C)=C(O)C(=O)N1c1ccc(-c2cc(C)no2)cc1` (stereo not shown) [Compound I-346], the IC50 was 677 nM. `Cc1nc(-c2ccc(N3C(=O)C(O)=C(C(=O)C4CCCC4)C3c3ccccc3OCC(C)C)cc2)no1` (stereo not shown) [Compound I-519]: the IC50 stood at 33 nM. Turning to `CC(C)C(=O)C1=C(O)C(=O)N(c2ccc(-c3ccsc3)cc2)C1c1ccccc1OCc1nnn[nH]1` (stereo not shown) [Compound I-217], the IC50 amounted to 12 nM. Turning to `COc1ccccc1C1c2c(C(C)(C)C)n[nH]c2C(=O)N1c1ccc(C(C)C)cc1` (stereo not shown) [II-197], the IC50 amounted to 106 nM. `COc1ncccc1C1c2c(C(C)(C)C)n[nH]c2C(=O)N1c1ccc(-c2cc(C)no2)cc1` (stereo not shown) [II-191]: the IC50 was found to be 322 nM. With `COCCOc1ncccc1C1C(C(=O)C(C)C)=C(O)C(=O)N1c1ccc(-c2csc(C)c2)cc1` (stereo not shown) [Compound I-268] the figure was 32 nM; with `Cc1ncccc1C1c2c(C(C)(C)C)n[nH]c2C(=O)N1c1ccc(-c2ccsc2)cc1` (stereo not shown) [II-123], 431 nM; with `CC(C)c1n[nH]c2c1C(c1ccccc1OCCN(C)C)N(c1ccc(-c3ccsc3)cc1)C2=O` (stereo not shown) [II-078], 16 nM.

For `COCCOc1ccccc1C1C(S(=O)(=O)C(C)C)=C(O)C(=O)N1c1ccc(-c2ccsc2)cc1` (stereo not shown) [Compound I-563], the IC50 was 42 nM. Take `COc1ccccc1C1C(C(=O)CC(C)C)=C(O)C(=O)N1c1ccc(-c2ccc(C)s2)cc1` (stereo not shown) [Compound I-327]: the IC50 came to 93 nM. In the case of `COCCOc1ccccc1C1C(C(=O)C(C)(C)C)=C(O)C(=O)N1c1ccc(-c2ccon2)cc1` (stereo not shown) [Compound I-098], the IC50 amounted to 370 nM. With `COc1ccccc1C1C(C(=O)C(C)C)=C(O)C(=O)N1c1ccc(-c2ccsc2)c(F)c1` (stereo not shown) [Compound I-235], the IC50 was determined as 35 nM.

For `Cc1ccc(-c2ccc(N3C(=O)C(O)=C(C(=O)C(C)C)C3c3cccnc3OCCCO)cc2)s1` (stereo not shown) [Compound I-568], the IC50 worked out at 66 nM. On to `CC(C)(C)c1n[nH]c2c1C(c1cccnc1OCCO)N(c1ccc(-c3ccco3)cc1)C2=O` (stereo not shown) [II-043], for which the IC50 came out at 17 nM. `COc1ncccc1C1c2c(C(C)(C)C)n[nH]c2C(=O)N1c1ccc(-c2cccs2)cc1` (stereo not shown) [II-224]: the IC50 is 31 nM. Then `COc1ccccc1C1c2c(C(C)(C)CO)n[nH]c2C(=O)N1c1ccc(-c2ccsc2)cn1` (stereo not shown) [II-251], with 8 nM; and `CC(C)(C)c1n[nH]c2c1C(c1cccc[n+]1[O-])N(c1ccc(-c3ccon3)cc1)C2=O` (stereo not shown) [II-058], with 494 nM. Turning to `CC(C)C(=O)C1=C(O)C(=O)N(c2ccc(-c3ccoc3)cc2)C1c1cccnc1OCCO` (stereo not shown) [Compound I-233], the IC50 amounted to 124 nM. Take `COCc1ccccc1C1C(C(=O)c2cccnc2)=C(O)C(=O)N1c1ccc(-c2ccsc2)cc1` (stereo not shown) [Compound I-461]: the IC50 stood at 36 nM. Then `CC(C)(C)C(=O)C1=C(O)C(=O)N(c2ccc(-c3ccsc3)cc2)C1c1cccc[n+]1[O-]` (stereo not shown) [Compound I-104], with 424 nM; and `COC(=O)COc1ccccc1C1C(C(=O)C(C)(C)C)=C(O)C(=O)N1c1ccc(-c2ccsc2)cc1` (stereo not shown) [Compound I-114], with 12 nM.

With `COCc1ccccc1C1C(C(=O)C(C)C)=C(O)C(=O)N1c1ccc(-c2ccsc2)cc1` (stereo not shown) [Compound I-186], the IC50 came out at 13 nM. Take `COCCOc1ncccc1C1c2c(C(C)(C)C)n[nH]c2C(=O)N1c1ccc(-c2cccs2)cc1` (stereo not shown) [II-035]: the IC50 turned out to be 6 nM. With `Cc1cc(-c2ccc(N3C(=O)C(O)=C(C(=O)C(C)C)C3c3ccccc3OCC3OCCO3)cc2)cs1` (stereo not shown) [Compound I-500], the IC50 worked out at 12 nM. As to `COCc1ncccc1C1c2c(C(C)(C)C)n[nH]c2C(=O)N1c1ccc(-c2ccsc2)cc1` (stereo not shown) [II-126], the IC50 was determined as 221 nM. Regarding `COc1ncccc1C1C(C(=O)C(C)(C)C)=C(O)C(=O)N1c1ccc(-c2ccoc2)cc1` (stereo not shown) [Compound I-118], the IC50 was 282 nM.

On to `COCCOc1ccccc1C1C(C(=O)C(C)C)=C(O)C(=O)N1c1ccc(-c2ccc(C)s2)cc1` (stereo not shown) [Compound I-263], for which the IC50 stood at 8 nM. As to `COc1cc(F)ccc1C1C(C(=O)CC(C)C)=C(O)C(=O)N1c1ccc(-c2ccsc2)cc1` (stereo not shown) [Compound I-326], the IC50 stood at 27 nM. Then `CC(C)(C)c1n[nH]c2c1C(c1ccccc1CO)N(c1ccc(-c3ccon3)cc1)C2=O` (stereo not shown) [II-113], with 838 nM; and `COC(=O)COc1ccccc1C1C(C(=O)C(C)(C)C)=C(O)C(=O)N1c1ccc(-c2ccon2)cc1` (stereo not shown) [Compound I-133], with 367 nM. In the case of `COc1ncccc1C1C(C(=O)C(C)(C)C)=C(O)C(=O)N1c1ccc(-c2ccsc2)nc1` (stereo not shown) [Compound I-108], the IC50 was 192 nM. As to `CN(C)c1ccccc1C1c2c(C(C)(C)C)n[nH]c2C(=O)N1c1ccc(-c2ccon2)cc1` (stereo not shown) [II-119], the IC50 was determined as 137 nM. With `COCCOc1ncccc1C1C(C(=O)C(C)C)=C(O)C(=O)N1c1ccc(-c2ccc(C)o2)cc1` (stereo not shown) [Compound I-357] the figure was 20 nM.

For the compound `Cc1nc(-c2ccc(N3C(=O)c4[nH]nc(C(C)C)c4C3c3cccnc3OCCO)cc2)no1` (stereo not shown) [II-046], the IC50 came out at 861 nM.

Regarding `COCCCOc1ccccc1C1C(C(=O)C(C)C)=C(O)C(=O)N1c1ccc(SC)cc1` (stereo not shown) [Compound I-484], the IC50 was 91 nM. As to `CSc1ccccc1C1C(C(=O)C(C)C)=C(O)C(=O)N1c1ccc(-c2ccsc2)cc1` (stereo not shown) [Compound I-558], the IC50 was 8 nM. `COc1ccccc1C1c2c(C(C)(CO)CO)n[nH]c2C(=O)N1c1ccc(-c2ccsc2)cc1` (stereo not shown) [II-266]: the IC50 stood at 7 nM.

Take `Cc1nc(-c2ccc(N3C(=O)C(O)=C(C(=O)C4CCCC4)C3c3ccccc3OC(C)C)cc2)no1` (stereo not shown) [Compound I-518]: the IC50 turned out to be 87 nM. Then `COc1ccccc1C1C(C(=O)C(C)(C)C)=C(N)C(=O)N1c1ccc(-c2ccon2)cc1` (stereo not shown) [Compound I-102], with 134 nM; and `CC(C)CC(=O)C1=C(O)C(=O)N(c2ccc(-c3ccoc3)cc2)C1c1ccccc1OCCO` (stereo not shown) [Compound I-350], with 66 nM. Regarding `CCC(CC)(CO)c1n[nH]c2c1C(c1ccccc1OC)N(c1ccc(-c3ccon3)cc1)C2=O` (stereo not shown) [II-145], the 50% inhibitory concentration (IC50) came to 33 nM. Take `COCCCOc1ncccc1C1C(C(=O)C(C)C)=C(O)C(=O)N1c1ccc(-c2ccc(C)o2)cc1` (stereo not shown) [Compound I-471]: the IC50 came out at 19 nM. On to `CSc1ccc(N2C(=O)C(O)=C(C(=O)C(C)C)C2c2ccccc2OCC2CCOCC2)cc1` (stereo not shown) [Compound I-591], for which the IC50 was found to be 31 nM. Consider `CC(C)c1n[nH]c2c1C(c1cccnc1OCCO)N(c1ccc(-c3ccsc3)cc1)C2=O` (stereo not shown) [II-045], for which the IC50 was found to be 16 nM. Regarding `C[S+]([O-])CCOc1ccccc1C1c2c(C(C)(C)C)n[nH]c2C(=O)N1c1ccc(-c2ccon2)cc1` (stereo not shown) [II-168], the IC50 turned out to be 101 nM.
